Assay results as given in a compilation of properties of binary mixtures (doi:10.1021/acs.jced.2c00033).

Test: xn = mol fraction of the nth substance listed
Conditions: 100 kPa

Question: Which results are given for CC[n+]1ccn(C)c1.[Br-] + O?
Answer: viscosity (303.15 K, x1 = 0.0997): 2.42 mPa·s; viscosity (303.15 K, x1 = 0.1466): 3.55 mPa·s; viscosity (303.15 K, x1 = 0.2501): 6.71 mPa·s; viscosity (303.15 K, x1 = 0.3881): 13 mPa·s; viscosity (303.15 K, x1 = 0.543): 28.2 mPa·s; viscosity (313.15 K, x1 = 0.049): 1.14 mPa·s; viscosity (313.15 K, x1 = 0.0997): 1.9 mPa·s; viscosity (313.15 K, x1 = 0.1466): 2.72 mPa·s; viscosity (313.15 K, x1 = 0.1978): 4.1 mPa·s; viscosity (313.15 K, x1 = 0.2501): 5.07 mPa·s; viscosity (313.15 K, x1 = 0.3881): 9.59 mPa·s; viscosity (313.15 K, x1 = 0.543): 19.4 mPa·s; viscosity (323.15 K, x1 = 0.049): 0.944 mPa·s; viscosity (323.15 K, x1 = 0.0997): 1.57 mPa·s; viscosity (323.15 K, x1 = 0.1466): 2.21 mPa·s; viscosity (323.15 K, x1 = 0.1978): 3.27 mPa·s; viscosity (323.15 K, x1 = 0.2501): 3.99 mPa·s; viscosity (323.15 K, x1 = 0.3881): 7.31 mPa·s; viscosity (323.15 K, x1 = 0.543): 14.3 mPa·s; viscosity (333.15 K, x1 = 0.0997): 1.3 mPa·s; viscosity (333.15 K, x1 = 0.1466): 1.85 mPa·s; viscosity (333.15 K, x1 = 0.1978): 2.66 mPa·s; viscosity (333.15 K, x1 = 0.2501): 3.21 mPa·s; viscosity (333.15 K, x1 = 0.3881): 5.76 mPa·s; viscosity (333.15 K, x1 = 0.543): 11.1 mPa·s; viscosity (343.15 K, x1 = 0.049): 0.688 mPa·s; viscosity (343.15 K, x1 = 0.0997): 1.12 mPa·s; viscosity (343.15 K, x1 = 0.1466): 1.53 mPa·s; viscosity (343.15 K, x1 = 0.1978): 2.2 mPa·s; viscosity (343.15 K, x1 = 0.2501): 2.65 mPa·s; viscosity (343.15 K, x1 = 0.3881): 4.59 mPa·s; viscosity (343.15 K, x1 = 0.543): 8.6 mPa·s

Question: Which viscosity (313.15 K, x2 = 0) does the source give for O + CC[n+]1ccn(C)c1.[Br-] here?
Answer: 0.684 mPa·s

Question: What about the viscosity (333.15 K, x2 = 0) of the same compound?
Answer: 0.492 mPa·s

Question: With CCCC[n+]1ccn(C)c1.[Br-] + O as the compound, how does the viscosity (303.15 K, x1 = 0.1481) read?
Answer: 5.93 mPa·s

Question: And the viscosity (303.15 K, x1 = 0.1979)?
Answer: 8.78 mPa·s

Question: What about the viscosity (303.15 K, x1 = 0.2517) of the same compound?
Answer: 12 mPa·s

Question: And the viscosity (313.15 K, x1 = 0.05)?
Answer: 1.56 mPa·s

Question: What about the viscosity (313.15 K, x1 = 0.0992) of the same compound?
Answer: 2.58 mPa·s

Question: What about the viscosity (313.15 K, x1 = 0.1481) of the same compound?
Answer: 4.3 mPa·s

Question: What about the viscosity (313.15 K, x1 = 0.1979) of the same compound?
Answer: 6.08 mPa·s

Question: And the viscosity (313.15 K, x1 = 0.2517)?
Answer: 8.65 mPa·s

Question: What about the viscosity (323.15 K, x1 = 0.05) of the same compound?
Answer: 1.27 mPa·s

Question: What about the viscosity (323.15 K, x1 = 0.0992) of the same compound?
Answer: 2.06 mPa·s

Question: And the viscosity (323.15 K, x1 = 0.1481)?
Answer: 3.43 mPa·s

Question: And the viscosity (323.15 K, x1 = 0.1979)?
Answer: 4.79 mPa·s

Question: And the viscosity (323.15 K, x1 = 0.2517)?
Answer: 6.49 mPa·s

Question: And the viscosity (333.15 K, x1 = 0.1481)?
Answer: 2.71 mPa·s

Question: And the viscosity (343.15 K, x1 = 0.05)?
Answer: 0.888 mPa·s

Question: And the viscosity (343.15 K, x1 = 0.0992)?
Answer: 1.37 mPa·s

Question: What about the viscosity (343.15 K, x1 = 0.1481) of the same compound?
Answer: 2.2 mPa·s

Question: What about the viscosity (343.15 K, x1 = 0.1979) of the same compound?
Answer: 2.91 mPa·s

Question: And the viscosity (343.15 K, x1 = 0.2517)?
Answer: 3.89 mPa·s

Question: And the viscosity (343.15 K, x1 = 0.3882)?
Answer: 7.98 mPa·s

Question: With O + CCCC[n+]1ccn(C)c1.[Br-] as the compound, how does the viscosity (313.15 K, x2 = 0) read?
Answer: 0.684 mPa·s

Question: What about the viscosity (323.15 K, x2 = 0) of the same compound?
Answer: 0.58 mPa·s

Question: And the viscosity (333.15 K, x2 = 0)?
Answer: 0.492 mPa·s

Question: What about the viscosity (343.15 K, x2 = 0) of the same compound?
Answer: 0.429 mPa·s

Question: For O + CCCn1cc[n+](C)c1.[Br-], which viscosity (303.15 K, x2 = 0) is on record?
Answer: 0.834 mPa·s

Question: What about the viscosity (313.15 K, x2 = 0) of the same compound?
Answer: 0.684 mPa·s

Question: And the viscosity (323.15 K, x2 = 0)?
Answer: 0.58 mPa·s

Question: For CCCn1cc[n+](C)c1.[Br-] + O, which viscosity (303.15 K, x1 = 0.0497) is on record?
Answer: 1.67 mPa·s

Question: What about the viscosity (303.15 K, x1 = 0.0992) of the same compound?
Answer: 3.1 mPa·s

Question: And the viscosity (303.15 K, x1 = 0.1984)?
Answer: 7.88 mPa·s

Question: And the viscosity (303.15 K, x1 = 0.5756)?
Answer: 87.4 mPa·s

Question: What about the viscosity (313.15 K, x1 = 0.0497) of the same compound?
Answer: 1.31 mPa·s

Question: And the viscosity (313.15 K, x1 = 0.0992)?
Answer: 2.39 mPa·s

Question: What about the viscosity (313.15 K, x1 = 0.1984) of the same compound?
Answer: 5.81 mPa·s

Question: What about the viscosity (313.15 K, x1 = 0.4005) of the same compound?
Answer: 19.6 mPa·s

Question: And the viscosity (313.15 K, x1 = 0.5756)?
Answer: 52.6 mPa·s

Question: What about the viscosity (323.15 K, x1 = 0.0992) of the same compound?
Answer: 1.9 mPa·s

Question: What about the viscosity (323.15 K, x1 = 0.1984) of the same compound?
Answer: 4.46 mPa·s

Question: And the viscosity (323.15 K, x1 = 0.4005)?
Answer: 13.9 mPa·s

Question: What about the viscosity (323.15 K, x1 = 0.5756) of the same compound?
Answer: 34 mPa·s

Question: What about the viscosity (333.15 K, x1 = 0.0497) of the same compound?
Answer: 0.899 mPa·s

Question: What about the viscosity (333.15 K, x1 = 0.0992) of the same compound?
Answer: 1.55 mPa·s

Question: And the viscosity (333.15 K, x1 = 0.1984)?
Answer: 3.53 mPa·s

Question: What about the viscosity (333.15 K, x1 = 0.4005) of the same compound?
Answer: 10.2 mPa·s

Question: What about the viscosity (333.15 K, x1 = 0.5756) of the same compound?
Answer: 23.2 mPa·s

Question: What about the viscosity (343.15 K, x1 = 0.0497) of the same compound?
Answer: 0.767 mPa·s

Question: And the viscosity (343.15 K, x1 = 0.0992)?
Answer: 1.29 mPa·s

Question: And the viscosity (343.15 K, x1 = 0.1984)?
Answer: 2.81 mPa·s

Question: What about the viscosity (343.15 K, x1 = 0.4005) of the same compound?
Answer: 7.82 mPa·s

Question: What about the viscosity (343.15 K, x1 = 0.5756) of the same compound?
Answer: 16.7 mPa·s
